This experiment concerns Jurkat cells. As to the kind of experiment: Cytotoxicity of compounds, CellTiter-Glo. Type of experiment: cell-based, Human. The following applies: read-out: EC50. In short, it runs like this: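 HCC1954 plated at 2500 cells/100 uL and attached overnight; Jurkat plated at 2500 cells/100 uL on the day of dosing. Cells exposed to 8-step 1:3 compound titrations for three nights at 37° C./5% CO2, in triplicate. CellTiter-Glo luminescence converted to % cytotoxicity versus medium-only control; EC50 by three-parameter nonlinear regression.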
Background: Cellular ATP, detected with luciferase, serves as a proxy for viable cell number.

Where [1] appears, read: Homo sapiens, Jurkat, Table 6, Compound Cytotoxicity on Jurkat.
Where [2] appears, read: Homo sapiens, Jurkat, Table 7, Cytotoxicity on Jurkat.

Here are results for 15 compounds from patent US11617777B2, “Cytotoxic and anti-mitotic compounds, and methods of using the same” (ZYMEWORKS BC INC., priority 2013, dated 2023).

For orientation: EC50 means the midpoint of the concentration-response curve.

Read-outs that look alike come from different tables or passages of the source.

Consider `CN[C@H](C(=O)N[C@H](C(=O)N(C)[C@H](/C=C(\C)C(=O)NS(=O)(=O)Cc1ccccc1)C(C)C)C(C)(C)C)C(C)(C)c1ccc(OCCSC(C)=O)cc1` [Compound 95, S-2-(4-((S)-4-((S)-1-(((S,E)-2,5-dimethyl-6-oxo-6-(benzylsulfonamido)hex-4-en-3-yl)(methyl)amino)-3,3-dimethyl-1-oxobutan-2-ylamino)-2-methyl-3-(methylamino)-4-oxobutan-2-yl)phenoxy)ethylethanethioate], for which the EC50 under setting [1] amounted to 0.288 nM. On the same count and under the same terms, as for `CN[C@H](C(=O)N[C@H](C(=O)N(C)[C@H](/C=C(\C)C(=O)NS(=O)(=O)Cc1ccccc1)C(C)C)C(C)(C)C)C(C)(C)c1ccc(OCCN)cc1` [Compound 96, (S,E)-4-((S)-2-((S)-3-(4-(2-aminoethoxy)phenyl)-3-methyl-2-(methylamino)butanamido)-N,3,3-trimethylbutanamido)-N-(benzylsulfonyl)-2,5-dimethylhex-2-enamide], the figure is 10.3 nM. `CN[C@H](C(=O)N[C@H](C(=O)N(C)[C@H](/C=C(\C)C(=O)NS(=O)(=O)c1ccccc1NC(=O)C(F)(F)F)C(C)C)C(C)(C)C)C(C)(C)c1ccccc1` [Compound 97, (S,E)-2,5-dimethyl-N-(2-(2,2,2-trifluoroacetamido)phenylsulfonyl)-4-((S)—N,3,3-trimethyl-2-((S)-3-methyl-2-(methylamino)-3-phenylbutanamido)butanamido)hex-2-enamide]: the EC50 reads like this: (Homo sapiens, Jurkat, Table 3, Cytotoxicity of Compounds on Jurkat Cells) 1.62 nM; under setting [1], 0.307 nM. On to `CN[C@H](C(=O)N[C@H](C(=O)N(C)[C@H](/C=C(\C)C(=O)NS(=O)(=O)c1ccccc1N)C(C)C)C(C)(C)C)C(C)(C)c1ccccc1` [Compound 98, (S,E)-N-(2-aminophenylsulfonyl)-2,5-dimethyl-4-((S)—N,3,3-trimethyl-2-((S)-3-methyl-2-(methylamino)-3-phenylbutanamido)butanamido)hex-2-enamide], for which the EC50 under setting [1] was determined as 0.077 nM. Consider `CN[C@H](C(=O)N[C@H](C(=O)N(C)[C@H](/C=C(\C)C(=O)NS(=O)(=O)Cc1cccc(C(F)(F)F)c1)C(C)C)C(C)(C)C)C(C)(C)c1ccccc1` [Compound 102, (S,E)-2,5-dimethyl-N-(3-(trifluoromethyl)benzylsulfonyl)-4-((S)—N,3,3-trimethyl-2-((S)-3-methyl-2-(methylamino)-3-phenylbutanamido)butanamido)hex-2-enamide], for which the EC50 under setting [1] worked out at 0.289 nM.

As for `CN[C@H](C(=O)N[C@H](C(=O)N(C)[C@H](/C=C(\C)C(=O)NS(=O)(=O)Cc1cccc(OC(F)(F)F)c1)C(C)C)C(C)(C)C)C(C)(C)c1ccccc1` [Compound 103, (S,E)-2,5-dimethyl-N-(3-(trifluoromethoxy)benzylsulfonyl)-4-((S)—N,3,3-trimethyl-2-((S)-3-methyl-2-(methylamino)-3-phenylbutanamido)butanamido)hex-2-enamide], the EC50 under setting [1] worked out at 0.209 nM. Still for that read-out and setting: as for `CN[C@H](C(=O)N[C@H](C(=O)N(C)[C@H](/C=C(\C)C(=O)NS(=O)(=O)Cc1ccc(Cl)c(Cl)c1)C(C)C)C(C)(C)C)C(C)(C)c1ccccc1` [Compound 104, (S,E)-N-(3,4-dichlorobenzylsulfonyl)-2,5-dimethyl-4-((S)—N,3,3-trimethyl-2-((S)-3-methyl-2-(methylamino)-3-phenylbutanamido)butanamido)hex-2-enamide], the figure is 0.272 nM.

For `CN[C@H](C(=O)N[C@H](C(=O)N(C)[C@H](/C=C(\C)C(=O)NS(=O)(=O)Cc1ccccc1C#N)C(C)C)C(C)(C)C)C(C)(C)c1ccccc1` [Compound 105, (S,E)-N-(2-cyanobenzylsulfonyl)-2,5-dimethyl-4-((S)—N,3,3-trimethyl-2-((S)-3-methyl-2-(methylamino)-3-phenylbutanamido)butanamido)hex-2-enamide], the EC50 under setting [1] was determined as 0.731 nM and the EC50 (Table 6, Compound Cytotoxicity on Jurkat) came out at 0.753 nM. With `CCc1cc(N)ccc1S(=O)(=O)NC(=O)/C(C)=C/[C@H](C(C)C)N(C)C(=O)[C@@H](NC(=O)[C@@H](NC)C(C)(C)c1ccccc1)C(C)(C)C` [Compound 107, (S,E)-N-(4-amino-2-ethylphenylsulfonyl)-2,5-dimethyl-4-((S)—N,3,3-trimethyl-2-((S)-3-methyl-2-(methylamino)-3-phenylbutanamido)butanamido)hex-2-enamide], the EC50 runs as follows: under setting [1], 0.043 nM; under setting [2], 0.043 nM. In the case of `CN[C@H](C(=O)N[C@H](C(=O)N(C)[C@H](/C=C(\C)C(=O)NS(=O)(=O)c1ccc(N)c(OC(F)(F)F)c1)C(C)C)C(C)(C)C)C(C)(C)c1ccccc1` [Compound 108, (S,E)-N-(4-amino-3-(trifluoromethoxy)phenylsulfonyl)-2,5-dimethyl-4-((S)—N,3,3-trimethyl-2-((S)-3-methyl-2-(methylamino)-3-phenylbutanamido)butanamido)hex-2-enamide], the EC50 was found to be 0.017 nM under setting [1] and 0.017 nM under setting [2]. On to `CN[C@H](C(=O)N[C@H](C(=O)N(C)[C@H](/C=C(\C)C(=O)NS(=O)(=O)c1ccc(N)c(C)c1C)C(C)C)C(C)(C)C)C(C)(C)c1ccccc1` [Compound 109, (S,E)-N-(4-amino-2,3-dimethylphenylsulfonyl)-2,5-dimethyl-4-((S)—N,3,3-trimethyl-2-((S)-3-methyl-2-(methylamino)-3-phenylbutanamido)butanamido) hex-2-enamide], for which the half-maximal effective concentration (EC50) runs as follows: under setting [1], 0.087 nM; under setting [2], 0.087 nM. For `CN[C@H](C(=O)N[C@H](C(=O)N(C)[C@H](/C=C(\C)C(=O)NS(=O)(=O)c1ccc(N)c2c1CCCC2)C(C)C)C(C)(C)C)C(C)(C)c1ccccc1` [Compound 110, (S,E)-N-(4-amino-5,6,7,8-tetrahydronaphthalen-1-ylsulfonyl)-2,5-dimethyl-4-((S)—N,3,3-trimethyl-2-((S)-3-methyl-2-(methylamino)-3-phenylbutanamido)butanamido)hex-2-enamide], the 50% effective concentration (EC50) was determined as 0.031 nM under setting [1] and 0.031 nM under setting [2]. Turning to `CN[C@H](C(=O)N[C@H](C(=O)N(C)[C@H](/C=C(\C)C(=O)NS(=O)(=O)c1ccc(N)c(C)c1)C(C)C)C(C)(C)C)C(C)(C)c1ccccc1` [Compound 111, (S,E)-N-(4-amino-3-methylphenylsulfonyl)-2,5-dimethyl-4-((S)—N,3,3-trimethyl-2-((S)-3-methyl-2-(methylamino)-3-phenylbutanamido)butanamido)hex-2-enamide], the EC50 is, setting by setting: under setting [1], roughly 0.118 nM; under setting [2], 0.12 nM. On the same counts, the results for `CN[C@H](C(=O)N[C@H](C(=O)N(C)[C@H](/C=C(\C)C(=O)NS(=O)(=O)c1ccc(N)c(F)c1)C(C)C)C(C)(C)C)C(C)(C)c1ccccc1` [Compound 112, (S,E)-N-(4-amino-3-fluorophenylsulfonyl)-2,5-dimethyl-4-((S)—N,3,3-trimethyl-2-((S)-3-methyl-2-(methylamino)-3-phenylbutanamido)butanamido)hex-2-enamide] are 0.064 nM and 0.064 nM.

For the compound `CN[C@H](C(=O)N[C@H](C(=O)N(C)[C@H](/C=C(\C)C(=O)NS(=O)(=O)c1ccc(N)c(C(F)(F)F)c1)C(C)C)C(C)(C)C)C(C)(C)c1ccccc1` [Compound 114, (S,E)-N-(4-amino-3-(trifluoromethyl)phenylsulfonyl)-2,5-di methyl-4-((S)—N,3,3-trimethyl-2-((S)-3-methyl-2-(methylamino)-3-phenylbutanamido)butanamido)hex-2-enamide], the half-maximal effective concentration (EC50) is, setting by setting: under setting [1], 0.056 nM; under setting [2], 0.056 nM.
